Data published in PubChem BioAssay (NCI).
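All cell lines were grown in 96-well plates and treated with compound for 48 hours. TGI: total growth inhibition.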

Key:
Assay in all cases: inhibition of tumour cell growth, NCI panel, 48 h
HS 578T breast = tested on: HS 578T breast
MDA-MB-231 breast = tested on: MDA-MB-231 breast
TK-10 renal = tested on: TK-10 renal
EKVX NSCLC = tested on: EKVX NSCLC
SF-539 CNS = tested on: SF-539 CNS
CCRF-CEM leukemia = tested on: CCRF-CEM leukemia
MDA-N = tested on: MDA-N
HCC-2998 colon = tested on: HCC-2998 colon
DU-145 prostate = tested on: DU-145 prostate
SNB-75 CNS = tested on: SNB-75 CNS
A549 NSCLC = tested on: A549 NSCLC
RXF 393 renal = tested on: RXF 393 renal
COLO 205 colon = tested on: COLO 205 colon
HOP-92 NSCLC = tested on: HOP-92 NSCLC
NCI-H226 lung = tested on: NCI-H226 lung
MDA-MB-435 = tested on: MDA-MB-435
M14 melanoma = tested on: M14 melanoma
ACHN renal = tested on: ACHN renal
U251 CNS = tested on: U251 CNS
K-562 leukemia = tested on: K-562 leukemia
786-0 renal = tested on: 786-0 renal
SK-OV-3 ovarian = tested on: SK-OV-3 ovarian
LOX IMVI melanoma = tested on: LOX IMVI melanoma
UACC-257 melanoma = tested on: UACC-257 melanoma
SN12C renal = tested on: SN12C renal
SF-295 CNS = tested on: SF-295 CNS
T-47D breast = tested on: T-47D breast
KM12 colon = tested on: KM12 colon
UO-31 renal = tested on: UO-31 renal
HCT-15 colon = tested on: HCT-15 colon
OVCAR-5 ovarian = tested on: OVCAR-5 ovarian
CAKI-1 renal = tested on: CAKI-1 renal
NCI/ADR-RES ovarian = tested on: NCI/ADR-RES ovarian
HOP-62 NSCLC = tested on: HOP-62 NSCLC
OVCAR-4 ovarian = tested on: OVCAR-4 ovarian
MCF7 breast = tested on: MCF7 breast
RPMI-8226 leukemia = tested on: RPMI-8226 leukemia
SK-MEL-28 melanoma = tested on: SK-MEL-28 melanoma
OVCAR-3 ovarian = tested on: OVCAR-3 ovarian
SW-620 colon = tested on: SW-620 colon
A498 renal = tested on: A498 renal
PC-3 prostate = tested on: PC-3 prostate
SK-MEL-2 melanoma = tested on: SK-MEL-2 melanoma
UACC-62 melanoma = tested on: UACC-62 melanoma
HCT-116 colon = tested on: HCT-116 colon
SNB-19 CNS = tested on: SNB-19 CNS
MOLT-4 leukemia = tested on: MOLT-4 leukemia
SF-268 CNS = tested on: SF-268 CNS
SK-MEL-5 melanoma = tested on: SK-MEL-5 melanoma
MALME-3M melanoma = tested on: MALME-3M melanoma
IGROV1 ovarian = tested on: IGROV1 ovarian
HT29 colon = tested on: HT29 colon
NCI-H522 lung = tested on: NCI-H522 lung
NCI-H23 lung = tested on: NCI-H23 lung
HL-60(TB) leukemia = tested on: HL-60(TB) leukemia
OVCAR-8 ovarian = tested on: OVCAR-8 ovarian

Measured: TGI

Cc1cccc(-c2cc(=S)c3cc(N4CCCC4)ccc3[nH]2)c1
not listed: MALME-3M melanoma | IGROV1 ovarian | HT29 colon | NCI-H522 lung | NCI-H23 lung | HL-60(TB) leukemia | OVCAR-8 ovarian
> 100 µM: all other assays above

Cc1[nH]c(=O)nc(NCCNCCO)c1C(=O)Nc1c2ccccc2nc2ccccc12
not listed: HS 578T breast | SF-268 CNS
> 100 µM: all other assays above
